Assay results taken from ChEMBL document CHEMBL4483862, “Open-source discovery of chemical leads for next-generation chemoprotective antimalarials” (2018).

Tested on: Plasmodium berghei
Assay: Luciferase/luciferin-expressing antifolate-resistant parasites were used to infect a culture of HepG2 cells that were pre-incubated with compounds. Infected hepatocytes emit light due to the luciferase reaction. Assay results are presented as the percent inhibition of light emission compared to control. […]
Format: functional
Conditions: sporozoite; for IC90: read-out: LUCIFERASE INFECTION ASSAY - IC90
[1] = read-out: LUCIFERASE INFECTION ASSAY - IC50

`CC(C)Oc1cccc(Nc2ncc(C(=O)c3cccc(-c4ccncc4)c3)[nH]2)c1` gave an IC50 (HEPG2TOX_HILL_SLOPE 3.28, HEPG2TOX_R_SQUARED 0.825, PBLUC_HILL_SLOPE 4.08, PBLUC_R_SQUARED 0.607, read-out: LUCIFERASE INFECTION ASSAY - IC50) of 2.27 µM and an IC90 of 3.9 µM.

With `COc1ccc(OC)c(S(=O)(=O)Nc2ccc(S(=O)(=O)Nc3cc(C(F)(F)F)cc(C(F)(F)F)c3)cc2)c1` the IC50 [1] was greater than 5.65 µM and the IC90 was greater than 5.65 µM.

Work on `COc1ccc(N2C(=O)C(=O)N(Cc3c(C)cc(C(C)(C)C)cc3C)C2=O)cc1` yielded an IC50 (HEPG2TOX_HILL_SLOPE 7.7, HEPG2TOX_R_SQUARED 0.735, PBLUC_HILL_SLOPE 4.71, PBLUC_R_SQUARED 0.498, read-out: LUCIFERASE INFECTION ASSAY - IC50) of 4.92 µM and an IC90 of 7.85 µM.

In the case of `COc1ccc(-c2ccnc3n[nH]c(-c4ccc5c(c4)OCO5)c23)cc1OC`, the IC50 (HEPG2TOX_HILL_SLOPE 5.74, HEPG2TOX_R_SQUARED 0.837, PBLUC_HILL_SLOPE 9.49, PBLUC_R_SQUARED 0.381, read-out: LUCIFERASE INFECTION ASSAY - IC50) is reported as 3.46 µM and the IC90 is reported as 4.36 µM.

Compound `COc1ccccc1NCC(=O)N/N=C1/C(=O)Nc2ccc(C(C)C)cc21` has an IC50 [1] greater than 10 µM and an IC90 greater than 10 µM.

Compound `CCCCc1ccc(NC2=C(Cl)C(=O)c3ccccc3C2=O)cc1` has an IC50 (FFLUC_HILL_SLOPE 9.03, FFLUC_R_SQUARED 0.305, HEPG2TOX_HILL_SLOPE 8.62, HEPG2TOX_R_SQUARED 0.549, PBLUC_HILL_SLOPE 14.3, PBLUC_R_SQUARED 0.552, read-out: LUCIFERASE INFECTION ASSAY - IC50) of 3.1 µM and an IC90 of 3.62 µM.

`COc1ccc(-n2c(C)cc(C(=O)CSc3nc4c(n3-c3ccccc3)CCCC4)c2C)cc1` gave an IC50 [1] greater than 10 µM and an IC90 greater than 10 µM.

Work on `O=S(=O)(NCc1nnc2n1-c1ccccc1CC2)c1ccc(C2CCCCC2)cc1` yielded an IC50 [1] greater than 10 µM and an IC90 greater than 10 µM.

Work on `O=C(NCc1cc(Cl)c2c(c1)OCCCO2)c1cnn(Cc2ccccc2)c1` yielded an IC50 (HEPG2TOX_HILL_SLOPE 3.36, HEPG2TOX_R_SQUARED 0.962, PBLUC_HILL_SLOPE 1.54, PBLUC_R_SQUARED 0.197, read-out: LUCIFERASE INFECTION ASSAY - IC50) of 9.57 µM and an IC90 greater than 10 µM.

With `O=C(NCC1CC1)Nc1csc(Cc2c(Cl)cccc2Cl)n1` the IC50 (PBLUC_HILL_SLOPE 0.58, PBLUC_R_SQUARED 0.694, read-out: LUCIFERASE INFECTION ASSAY - IC50) was greater than 9.26 µM and the IC90 was greater than 9.26 µM.

`CC(=O)NCCc1ccc(C(=O)COC(=O)c2cc(C(C)C)cc(C(C)C)c2O)s1` was tested, and the IC50 [1] was greater than 10 µM and the IC90 was greater than 10 µM.

`Cc1cc2ccccc2n1CC(=O)NCc1ccc(NC(=O)c2ccco2)cc1` gave an IC50 [1] of 5.73 µM and an IC90 greater than 10 µM.

`Cc1noc(C)c1C(=O)NNC(=O)c1ccc(Cl)cc1` showed an IC50 (PBLUC_HILL_SLOPE 16.2, PBLUC_R_SQUARED 0.359, read-out: LUCIFERASE INFECTION ASSAY - IC50) of 11 µM and an IC90 greater than 11.2 µM.

`O=C(Nc1nc2ccccn2c1C(=O)NC1CCCC1)c1ccc(F)cc1F` showed an IC50 [1] of 2.94 µM and an IC90 of 3.49 µM.

With `CCC(=O)Nc1nc2ccc(NC(=O)c3cc(OC)cc(OC)c3)cc2s1` the IC50 (PBLUC_HILL_SLOPE 2.13, PBLUC_R_SQUARED 0.461, read-out: LUCIFERASE INFECTION ASSAY - IC50) was 5.13 µM and the IC90 was greater than 8.56 µM.

Compound `CC1CCCC(C)N1C(=O)Nc1cccc(Cl)c1` (stereo not given) has an IC50 [1] greater than 12.4 µM and an IC90 greater than 12.4 µM.

With `COc1ccc(C2CC(c3ccccc3)=NN2C(=O)CSc2ncnc3ccccc23)cc1` (stereo not given) the IC50 [1] was greater than 10 µM and the IC90 was greater than 10 µM.

For `O=C(CSCCc1nc(-c2ccc(Cl)cc2)cs1)N/N=C/c1ccccc1`, the IC50 (PBLUC_HILL_SLOPE 13.2, PBLUC_R_SQUARED 0.406, read-out: LUCIFERASE INFECTION ASSAY - IC50) was 2.9 µM and the IC90 was 3.43 µM.

`COc1ccc(-c2nc(C(=O)N3CCc4ccccc43)cs2)cc1OC` showed an IC50 (HEPG2TOX_HILL_SLOPE 2.84, HEPG2TOX_R_SQUARED 0.79, PBLUC_HILL_SLOPE 2.13, PBLUC_R_SQUARED 0.686, read-out: LUCIFERASE INFECTION ASSAY - IC50) of 0.875 µM and an IC90 of 2.46 µM.

In the case of `CSc1ccc(-c2cn3c(-c4ccc(C(=O)NC5CC5)cc4)cnc3cn2)cc1`, the IC50 (PBLUC_HILL_SLOPE 11.7, PBLUC_R_SQUARED 0.658, read-out: LUCIFERASE INFECTION ASSAY - IC50) is reported as 7.27 µM and the IC90 is reported as greater than 8.24 µM.

For `Cc1cc(NC(=O)c2cccc(S(=O)(=O)N3c4ccccc4CC3C)c2)no1` (stereo not given), the IC50 (PBLUC_HILL_SLOPE 18.4, PBLUC_R_SQUARED 0.605, read-out: LUCIFERASE INFECTION ASSAY - IC50) was 1.1 µM and the IC90 was 1.24 µM.

Work on `CCOc1cc(N2CCOCC2)c(OCC)cc1NC(=O)c1cc(Cl)c(OC)c(OC)c1` yielded an IC50 [1] greater than 10 µM and an IC90 greater than 10 µM.

Compound `Clc1ccc(-c2csc3ncnc(NCc4ccc(N5CCOCC5)nc4)c23)cc1` has an IC50 (HEPG2TOX_HILL_SLOPE 1.06, HEPG2TOX_R_SQUARED 0.974, PBLUC_HILL_SLOPE 2.24, PBLUC_R_SQUARED 0.328, read-out: LUCIFERASE INFECTION ASSAY - IC50) of 5.51 µM and an IC90 greater than 10 µM.

`Cc1cc2ccccn2c1C(=O)c1ccc(-c2ccccc2)cc1` showed an IC50 (HEPG2TOX_HILL_SLOPE 2.45, HEPG2TOX_R_SQUARED 0.945, PBLUC_HILL_SLOPE 19.6, PBLUC_R_SQUARED 0.427, read-out: LUCIFERASE INFECTION ASSAY - IC50) of 3.37 µM and an IC90 of 3.77 µM.

With `Cc1nc(Sc2ncnc3c(Br)cccc23)sc1CC(N)=O` the IC50 [1] was greater than 10 µM and the IC90 was greater than 10 µM.

For `COc1ccccc1NC(=O)NCc1nc(-c2ccccc2)c[nH]1`, the IC50 (HEPG2TOX_HILL_SLOPE 5.47, HEPG2TOX_R_SQUARED 0.951, PBLUC_HILL_SLOPE 7.77, PBLUC_R_SQUARED 0.194, read-out: LUCIFERASE INFECTION ASSAY - IC50) was 3.84 µM and the IC90 was 5.1 µM.

With `Cc1ccc(/C=C2\Oc3cc(O)cc(C)c3C2=O)cc1` the IC50 (FFLUC_HILL_SLOPE 2.5, FFLUC_R_SQUARED 0.135, PBLUC_HILL_SLOPE 2.13, PBLUC_R_SQUARED 0.666, read-out: LUCIFERASE INFECTION ASSAY - IC50) was 2.63 µM and the IC90 was 7.36 µM.

For `CC(C)[C@H](NC(=O)c1ccccc1Cl)C(=O)OC(C(=O)Nc1cccc(C(F)(F)F)c1)c1ccccc1` (stereo not given in full), the IC50 (HEPG2TOX_HILL_SLOPE 0.157, HEPG2TOX_R_SQUARED 0.175, read-out: LUCIFERASE INFECTION ASSAY - IC50) was greater than 10 µM and the IC90 was greater than 10 µM.

For `CC(C)OC(=O)c1nnsc1S(=O)(=O)c1ccc(Cl)cc1`, the IC50 [1] was greater than 9.52 µM and the IC90 was greater than 9.52 µM.

Compound `Cc1nn(-c2ccc(Cl)cc2)c2sc(C(=O)NCC3(N(C)C)CCCCC3)cc12` has an IC50 (HEPG2TOX_HILL_SLOPE 22.9, HEPG2TOX_R_SQUARED 0.594, PBLUC_HILL_SLOPE 11.3, PBLUC_R_SQUARED 0.837, read-out: LUCIFERASE INFECTION ASSAY - IC50) of 4.37 µM and an IC90 of 5.31 µM.

Compound `Cc1nn(CC(=O)NCCCN2c3ccccc3Sc3ccccc32)c(C)c1[N+](=O)[O-]` has an IC50 [1] greater than 10 µM and an IC90 greater than 10 µM.

For `CC(C)NC(=O)c1c(NC(=O)c2ccc(C(F)(F)F)cc2)nc2ccccn12`, the IC50 (FFLUC_HILL_SLOPE 4.65, FFLUC_R_SQUARED 0.42, HEPG2TOX_HILL_SLOPE 0.706, HEPG2TOX_R_SQUARED 0.931, PBLUC_HILL_SLOPE 2.98, PBLUC_R_SQUARED 0.635, read-out: LUCIFERASE INFECTION ASSAY - IC50) was 0.698 µM and the IC90 was 1.46 µM.

With `C=c1onc(-c2c(F)cccc2Cl)c1=C1NC(c2ccccn2)=NO1` the IC50 (PBLUC_HILL_SLOPE 3.2, PBLUC_R_SQUARED 0.36, read-out: LUCIFERASE INFECTION ASSAY - IC50) was 6.04 µM and the IC90 was greater than 9.25 µM.

`CC/N=c1\scc(-c2ccc(Cl)cc2)n1/N=C/c1ccc[nH]1` showed an IC50 (PBLUC_HILL_SLOPE 20.7, PBLUC_R_SQUARED 0.413, read-out: LUCIFERASE INFECTION ASSAY - IC50) of 0.374 µM and an IC90 of 0.416 µM.

With `COc1ccc(CO/N=C/NC(=O)C(c2ccc(Cl)cc2)c2nc3ccccc3nc2C(F)(F)F)cc1` (stereo not given) the IC50 (HEPG2TOX_HILL_SLOPE 1.06, HEPG2TOX_R_SQUARED 0.661, read-out: LUCIFERASE INFECTION ASSAY - IC50) was greater than 6.24 µM and the IC90 was greater than 6.24 µM.

Compound `CC(C)CN1CCOC(CSc2nc3sc4c(c3c(=O)n2C)CCC4)C1` (stereo not given) has an IC50 [1] greater than 10 µM and an IC90 greater than 10 µM.

In the case of `CCOC(=O)/C(=N\Nc1sc(C(=O)OCC)c(C)c1C(=O)OCC)C(=O)c1ccccc1`, the IC50 [1] is reported as 7.51 µM and the IC90 is reported as 9.2 µM.

`CCOc1ccccc1C(=O)NCCc1cccc(Cl)c1` showed an IC50 [1] greater than 10.9 µM and an IC90 greater than 10.9 µM.

In the case of `N#Cc1ccc(Cc2cnc(NC(=O)c3ccc4ncsc4c3)s2)cc1`, the IC50 (HEPG2TOX_HILL_SLOPE 1.13, HEPG2TOX_R_SQUARED 0.797, PBLUC_HILL_SLOPE 1.77, PBLUC_R_SQUARED 0.567, read-out: LUCIFERASE INFECTION ASSAY - IC50) is reported as 0.526 µM and the IC90 is reported as 1.82 µM.

With `N#CCCN(Cc1ccco1)C(=O)CSc1nc2ccccc2c(=O)n1-c1cccc(Cl)c1` the IC50 [1] was 7.35 µM and the IC90 was greater than 10 µM.

`CC(C)NS(=O)(=O)c1cccc(CNc2ncnc3ccccc23)c1` gave an IC50 (HEPG2TOX_HILL_SLOPE 0.638, HEPG2TOX_R_SQUARED 0.943, PBLUC_HILL_SLOPE 2.45, PBLUC_R_SQUARED 0.694, read-out: LUCIFERASE INFECTION ASSAY - IC50) of 0.954 µM and an IC90 of 2.34 µM.

Compound `COc1cc(OC)c(NC(=O)c2cc3ccccc3cc2OCC(=O)NC(C)c2ccccc2)cc1Cl` (stereo not given) has an IC50 [1] greater than 10 µM and an IC90 greater than 10 µM.

In the case of `Cc1nn(-c2ccccc2)c2sc(C(=O)NNc3nc(CN4CCOCC4)nc4scc(-c5ccccc5)c34)cc12`, the IC50 (HEPG2TOX_HILL_SLOPE 1.59, 8.29, HEPG2TOX_R_SQUARED 0.901, 0.855, PBLUC_HILL_SLOPE 12, PBLUC_R_SQUARED 0.591, read-out: LUCIFERASE INFECTION ASSAY - IC50) is reported as 8.46 µM and the IC90 is reported as greater than 10 µM.

For `COc1ccc2cc(-c3nc4ccc(Cl)cc4c(-c4ccccc4F)c3C)ccc2c1`, the IC50 [1] was 6.1 µM and the IC90 was greater than 10 µM.

`CCOC(=O)c1[nH]c(C)c(C(=O)OCC(=O)Nc2ccc(S(=O)(=O)NC3=NCCCCC3)cc2)c1C` gave an IC50 [1] greater than 10 µM and an IC90 greater than 10 µM.
